In patent US20040024024A1, “Aromatic sulfone hydroxamates and their use as protease inhibitors” (priority 2001, published 2004):

How the values were obtained:
Assay in all cases: In vitro MMP inhibition, IC50 determination (fluorogenic substrate I)
Format in all cases: biochemical
Details in all cases: value outside parenthesis
[1] = target: T1, Human recombinant MMP-14 (Homo sapiens, UniProt P50281)
T1 construct: The catalytic domain enzyme was expressed in E. coli inclusion bodies, solubilized in urea; made in house
Method: Several hydroxamates and salts thereof were analyzed in in vitro assays to determine their ability to inhibit the MMP cleavage of peptide substrates. Inhibition (Ki) and IC50 constants were calculated from the assayed hydroxamate-MMP interactions.
Human recombinant MMP-1, MMP-2, MMP-9, MMP-13, and MMP-14 were used in this assay. All enzymes were prepared in Assignee's laboratories following usual laboratory procedures. Protocols for the preparation and use of these enzymes are available in the scientific literature. See, e.g., Enzyme Nomenclature (Academic Press, San Diego, Calif., 1992) (and the citations therein). See also, Frije et al., J. Biol. Chem., 26(24), 16766-73 (1994).
The MMP-14 full length cDNA was provided by Dr. Gregory Goldberg of Washington University (St. Louis, Mo.). The catalytic domain enzyme was expressed in E. coli inclusion bodies, solubilized in urea, purified on a preparative […] reverse phase HPLC column, and then refolded in the presence of zinc acetate and purified for use.
All MMPs were activated using 4-aminophenylmercuric acetate (“APMA”, Sigma Chemical, St. Louis, Mo.) or trypsin. MMP-9 also was activated using human recombinant MMP-3 (purified in Assignee's laboratory following standard cloning and purification techniques).
Two fluorogenic, methoxycoumarin-containing polypeptide substrates were used in the MMP inhibition assays:
MCA-ProLeuGlyLeuDpaAlaArgNH2 (I)
Here, “Dpa” is 3-(2,4-dinitrophenyl)-L-2,3-diaminopropionyl group, and “MCA” is 7-methoxycoumarin-4-yl acetyl. Substrate (I) was purchased from Baychem (Redwood City, Calif.), and substrate II was prepared Assignee's laboratory. Substrate I was used in the IC50 determination assays, while substrate II was used in the Ki determination assays. In the absence of MMP inhibitory activity, either substrate is cleaved at the Gly-Leu peptide bond. This cleavage separates the highly fluorogenic peptide from the 2,4-dinitrophenyl quencher, thus resulting in increase of fluorescent intensity.
The stock solutions of the assayed hydroxamates (or salts thereof) were prepared in 1% dimethyl sulfoxide (DMSO). These stock solutions were diluted in Buffer A (100 mM Tris-HCl, 100 mM NaCl, 10 mM CaCl2, 0.05% polyoxyethylene 23 lauryl ether, pH 7.5) to obtain solutions with different hydroxamate concentrations, i.e., assay solutions with different concentrations of the assayed MMP inhibitory compound. The experiment controls contained the same amount of Buffer A/DMSO as the assayed sample, but contained no hydroxamate (or salt thereof).
The assays from which the IC50 determinations were made were performed as follows. The MMPs were activated with either trypsin or APMA (4-aminophenylmercuric acetate, Sigma Chemical, St. Louis, Mo.). The assayed hydroxamate samples were, incubated in Microfluorrm White Plates (Dynatech, Chantilly, VA) and analyzed on a Perkin Elmer L550 plate reader (Norwalk, Conn.). The excitation wavelength was 328 nm, and the emission wavelength—415 nm. All samples (assayed hydroxamates and controls) were incubated in separate plates at room temperature in the presence of 4 μM of MMP substrate (I). As stated in the previous paragraph, samples containing varying concentrations of the same assayed hydroxamate were prepared. Inhibition was measured as a reduction in fluorescent intensity as a function of MMP inhibitor concentration.

[2] = target: T2, Human recombinant MMP-9 (Homo sapiens, UniProt P14780)
T2 construct: made in house; host or cells: MMP-9-transfected HT1080 cells (spent media)
In short: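 MMP-9 proenzyme purified from transfected HT1080 cell media, activated with APMA or trypsin. Compound dilutions in pH 7.5 Tris/NaCl/CaCl2 buffer with 0.05% polyoxyethylene 23 lauryl ether, incubated at room temperature with 4 μM MCA/Dpa substrate I. IC50 from fluorescence loss (ex 328, em 415 nm) versus inhibitor concentration.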

[3] = target: T3, Human recombinant MMP-2 (Homo sapiens, UniProt P08253)
T3 construct: made in house; host or cells: MMP-2-transfected p2AHT2 cells
T3 sequence (P08253 110-660): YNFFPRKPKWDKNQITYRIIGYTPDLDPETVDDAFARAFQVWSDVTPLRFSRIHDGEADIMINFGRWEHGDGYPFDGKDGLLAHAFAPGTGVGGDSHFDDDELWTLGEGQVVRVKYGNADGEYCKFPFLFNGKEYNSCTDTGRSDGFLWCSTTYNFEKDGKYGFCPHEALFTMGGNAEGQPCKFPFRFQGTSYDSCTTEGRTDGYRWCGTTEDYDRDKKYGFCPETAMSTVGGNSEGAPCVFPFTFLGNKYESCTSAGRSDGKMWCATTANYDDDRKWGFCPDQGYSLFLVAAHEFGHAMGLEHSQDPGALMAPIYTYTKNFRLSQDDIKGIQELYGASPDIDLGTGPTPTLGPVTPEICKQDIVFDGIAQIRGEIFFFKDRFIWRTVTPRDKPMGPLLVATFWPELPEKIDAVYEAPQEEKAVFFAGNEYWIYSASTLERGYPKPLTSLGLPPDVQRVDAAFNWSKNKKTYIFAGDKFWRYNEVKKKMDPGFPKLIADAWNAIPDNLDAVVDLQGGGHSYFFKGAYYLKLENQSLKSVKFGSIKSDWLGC
In short: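 APMA- or trypsin-activated recombinant MMP-2 was incubated at room temperature with serial inhibitor dilutions in Tris buffer pH 7.5 (100 mM NaCl, 10 mM CaCl2, 0.05% Brij), with DMSO from 1% stocks, and 4 μM substrate I. Cleavage was read by fluorescence at 328/415 nm; IC50 was taken from the loss of fluorescence versus inhibitor concentration.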

[4] = target: T4, Human recombinant MMP-1 (Homo sapiens, UniProt P03956)
T4 construct: made in house; host or cells: MMP-1-transfected HT-1080 cells (spent media)
T4 sequence (P03956 100-469): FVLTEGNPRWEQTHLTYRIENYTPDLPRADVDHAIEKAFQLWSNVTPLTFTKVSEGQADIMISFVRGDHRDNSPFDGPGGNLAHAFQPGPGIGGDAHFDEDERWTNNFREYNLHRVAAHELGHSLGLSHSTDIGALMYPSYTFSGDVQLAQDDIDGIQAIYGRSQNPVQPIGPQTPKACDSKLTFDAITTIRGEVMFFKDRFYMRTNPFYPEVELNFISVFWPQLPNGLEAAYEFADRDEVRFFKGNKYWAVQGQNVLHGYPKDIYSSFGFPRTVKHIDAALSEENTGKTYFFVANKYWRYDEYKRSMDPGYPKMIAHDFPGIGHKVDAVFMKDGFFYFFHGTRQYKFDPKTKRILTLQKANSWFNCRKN
In short: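 APMA- or trypsin-activated enzyme, purified from spent media of transfected HT-1080 cells, incubated at room temperature with 4 μM MCA-Pro-Leu-Gly-Leu-Dpa-Ala-Arg-NH2 and graded inhibitor in Tris buffer pH 7.5 (10 mM CaCl2, 0.05% Brij). Cleavage read by fluorescence (ex 328/em 415 nm); IC50 from fluorescence reduction versus inhibitor concentration.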

[5] = target: T5, Human recombinant MMP-13 (Homo sapiens, UniProt P45452)
T5 construct: made in house; host or cells: baculovirus / insect cells
In short: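 Fluorescence at 415 nm (excitation 328 nm) reports Gly-Leu cleavage of 4 μM quenched methoxycoumarin peptide substrate I. Human recombinant MMP-13, activated by trypsin or APMA, was incubated at room temperature with varied inhibitor concentrations in pH 7.5 Tris/NaCl/CaCl2 buffer; IC50 derived from reduced fluorescence.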

T2 sequence (P14780 107-707 limits assumed): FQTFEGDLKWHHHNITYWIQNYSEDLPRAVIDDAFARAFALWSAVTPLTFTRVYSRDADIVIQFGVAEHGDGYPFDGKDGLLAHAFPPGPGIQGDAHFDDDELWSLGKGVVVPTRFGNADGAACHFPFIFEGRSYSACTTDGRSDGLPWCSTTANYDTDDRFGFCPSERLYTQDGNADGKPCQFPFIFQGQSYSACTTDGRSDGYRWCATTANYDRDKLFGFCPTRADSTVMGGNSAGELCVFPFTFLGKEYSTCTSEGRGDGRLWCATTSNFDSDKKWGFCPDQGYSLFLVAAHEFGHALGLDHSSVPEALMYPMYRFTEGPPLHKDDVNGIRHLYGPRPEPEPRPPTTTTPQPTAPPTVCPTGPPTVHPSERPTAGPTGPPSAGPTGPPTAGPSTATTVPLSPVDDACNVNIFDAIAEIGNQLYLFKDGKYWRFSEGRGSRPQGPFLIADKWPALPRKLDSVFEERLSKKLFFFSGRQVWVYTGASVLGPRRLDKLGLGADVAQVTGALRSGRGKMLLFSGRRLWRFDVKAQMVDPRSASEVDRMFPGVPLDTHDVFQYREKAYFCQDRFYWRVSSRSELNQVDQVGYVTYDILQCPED

SMILES	IC50 [1] [µM]	IC50 [2] [µM]	IC50 [3] [µM]	IC50 [4] [µM]	IC50 [5] [µM]
CN(C)Cc1ccc(C(=O)CCCCOc2ccc(S(=O)(=O)C3(C(=O)NO)CCN(C4CC4)CC3)cc2)cc1 [Example 187]	1.42	0.0112	0.0036	3.87	0.0018
O=C(NO)C1(S(=O)(=O)c2ccc(OCCSc3nc4ccc(Cl)cc4o3)cc2)CCN(C2CC2)CC1 [Example 188]	3.54	0.0482	0.0047	> 10	0.0003
CCc1ccc(N2CCN(CCCOc3ccc(S(=O)(=O)C4(C(=O)NO)CCOCC4)cc3)C2=O)cc1 [Example 191]	> 10	0.383	0.341	6.96	0.0095
O=C1N(CCCOc2ccc(S(=O)(=O)C3(C(=O)NO)CCOCC3)cc2)CCN1c1ccc(C(F)(F)F)cc1 [Example 193]	> 10	0.273	0.312	5.93	0.0068
O=C1N(CCCOc2ccc(S(=O)(=O)C3(C(=O)NO)CCOCC3)cc2)CCN1c1ccc(OC(F)(F)F)cc1 [Example 194]	> 10	0.516	0.222	> 10	0.0062
O=C1N(CCCOc2ccc(S(=O)(=O)C3(C(=O)NO)CCOCC3)cc2)CCN1c1ccc(F)cc1 [Example 195]	2.74	0.0458	0.0206	4.38	0.0075
O=C(NO)C1(S(=O)(=O)c2ccc(OCCCc3nnc(-c4ccc(OC(F)(F)F)cc4)o3)cc2)CCOCC1 [Example 200]	> 10	1.21	0.084	7.5	0.0006
Cc1ccc(/C(C#N)=C/CCCOc2ccc(S(=O)(=O)C3(C(=O)NO)CCN(C4CC4)CC3)cc2)cc1C [Example 201]	> 10	4.51	0.128	> 10	0.0007
O=C(NO)C1(S(=O)(=O)c2ccc(OCCCSc3nc4ccccc4o3)cc2)CCN(C2CC2)CC1 [Example 203]	> 10	0.006	0.0042	> 10	0.001
Cc1ccc(-c2nnc(CCCOc3ccc(S(=O)(=O)C4(C(=O)NO)CCOCC4)cc3)o2)c(C)c1 [Example 204]	> 10	1.82	0.146	> 10	0.0006
CCCc1ccc(-c2nc(CCCOc3ccc(S(=O)(=O)C4(C(=O)NO)CCN(CCOC)CC4)cc3)oc2C)cc1 [Example 206]	3.11	0.0594	0.0926	> 10	0.0158
CCCc1ccc(-c2nc(CCCOc3ccc(S(=O)(=O)C4(C(=O)NO)CCOCC4)cc3)oc2C)cc1 [Example 207]	> 10	0.127	0.114	> 10	0.0037
O=C(NCCCOc1ccc(S(=O)(=O)C2(C(=O)NO)CCN(C3CC3)CC2)cc1)c1ccc(OC(F)(F)F)cc1 [Example 208]	> 10	6.59	0.23	> 10	0.0006
CC(C)Oc1ccc(-c2nnc(CCCOc3ccc(S(=O)(=O)C4(C(=O)NO)CCOCC4)cc3)o2)cc1 [Example 209]	> 10	0.906	0.172	> 10	0.0014
O=C(NO)C1(S(=O)(=O)c2ccc(OCCCc3nc(-c4cccc([N+](=O)[O-])c4)no3)cc2)CCOCC1 [Example 210]	> 10	0.285	0.0069	> 10	0.0013
O=C(NO)C1(S(=O)(=O)c2ccc(OCCCc3nc(-c4cc(F)ccc4F)no3)cc2)CCOCC1 [Example 211]	> 10	0.864	0.0262	9.65	0.0004
O=C(NO)C1(S(=O)(=O)c2ccc(OCCCc3nc(-c4ccc([N+](=O)[O-])cc4)no3)cc2)CCOCC1 [Example 212]	> 10	0.212	0.0041	1.41	0.0003
O=C(NO)C1(S(=O)(=O)c2ccc(OCCCc3nc(-c4cccc(Cl)c4Cl)no3)cc2)CCOCC1 [Example 213]	> 10	2.2	0.0548	> 10	0.0022
O=C(NO)C1(S(=O)(=O)c2ccc(OCCCc3nc(-c4c(Cl)cccc4Cl)no3)cc2)CCOCC1 [Example 214]	> 10	4.24	0.0158	> 10	0.0033
O=C(NO)C1(S(=O)(=O)c2ccc(OCCCc3nc(-c4ccc5c(c4)OCO5)no3)cc2)CCOCC1 [Example 215]	> 10	0.768	0.0203	> 10	0.0003
